Measured values taken from patent publication US20250066778A1, “METHODS AND MATERIALS FOR TREATING HEART ATTACK” (THE JOHNS HOPKINS UNIVERSITY, priority 2022, published 2025).

Experiments:
[1] = system: wild type neonatal mouse cardiomyocytes (NMCMs); assay: Gene expression (qPCR) in cultured wild type neonatal mouse cardiomyocytes after treatment; format: cell-based; conditions: for expression of mitosis regulating genes / Wee1 gene expression / expression of clock (circadian) genes: wild type NMCMs; for expression of mitosis regulating genes: norepinephrine 1 μM (FIG. 4C); for Wee1 gene expression: norepinephrine 1 μM (FIG. 5E); for expression of clock (circadian) genes: reset with 50% serum, norepinephrine 1 μM, after 48 hrs of treatment (FIG. 4B)
Description: Cardiomyocytes were isolated from P0 or P1 mouse hearts using a neonatal cardiomyocyte isolation kit (Miltenyi Biotec) based on manufacturer's instructions. Before plating, cardiomyocytes were filtered through a 70 μm mesh and single cells were cultured in 24-well plates coated with gelatin. The cells were first maintained in 5% fetal bovine serum (FBS) in DMEM with Pen/Strep antibiotics for 24 hours and subsequently treated for at least 2 hours with 50% horse serum in DMEM and then for 2 days with 5% FBS in DMEM. Cardiomyocytes were treated with Norepinephrine (1 μM) (Sigma) or Nerve Growth Factor (NGF, 20 ng/ml) (PeproTech) as indicated.
RNA was isolated from mouse hearts and cultured cardiomyocytes using Trizol, and cDNA was generated using the high-capacity cDNA reverse transcription kit (Applied Biosystems). qPCR reactions were performed using the Sybr Select qPCR mix (Thermo Fisher) with indicated primers. Gene expression levels were normalized to Gapdh or Rpl32.

[2] = system: Per1/Per2 DKO neonatal mouse cardiomyocytes; assay: Gene expression (qPCR) in cultured cardiomyocytes from Per1/Per2 DKO neonatal mouse hearts after treatment; format: cell-based; conditions: for expression of cell cycle / mitosis regulating genes: norepinephrine 1 μM (FIG. 4C); for Wee1 gene expression: norepinephrine 1 μM (FIG. 5E)
Text: Sm22a-Cre (017491) and C57BL/6 mice were obtained from Jackson Lab. NGF +/− mice, Per1/Per2 DKO mice, and Mesp1-Cre mice were as described elsewhere (see, e.g., Wheeler et al., Neuron, 82: 587-602 (2014); Muller et al., J. Neurosci., 32: 14885-14898 (2012); and Saga et al., Development, 126: 3437-3447 (1999)). The animals were randomly allocated to experimental groups and both male and female mice were equally used in all experimental assays. All mouse hearts and cardiomyocytes were harvested at random times during the day unless specified otherwise. Cardiomyocytes were isolated from P0 or P1 mouse hearts using a neonatal cardiomyocyte isolation kit (Miltenyi Biotec) based on manufacturer's instructions. Before plating, cardiomyocytes were filtered through a 70 μm mesh and single cells were cultured in 24-well plates coated with gelatin. The cells were first maintained in 5% fetal bovine serum (FBS) in DMEM with Pen/Strep antibiotics for 24 hours and subsequently treated for at least 2 hours with 50% horse serum in DMEM and then for 2 days with 5% FBS in DMEM. Cardiomyocytes were treated with Norepinephrine (1 μM) (Sigma) or Nerve Growth Factor (NGF, 20 ng/ml) (PeproTech) as indicated. RNA was isolated from mouse hearts and cultured cardiomyocytes using Trizol, and cDNA was generated using the high-capacity cDNA reverse transcription kit (Applied Biosystems). qPCR reactions were performed using the Sybr Select qPCR mix (Thermo Fisher) with indicated primers. Gene expression levels were normalized to Gapdh or Rpl32.

Row | Compound | expression of mitosis regulating genes [1] | expression of mitosis regulating genes ([1]; listed as norepinephrine) | Wee1 gene expression [1] | Wee1 gene expression ([1]; listed as norepinephrine) | expression of clock (circadian) genes [1] | expression of clock (circadian) genes ([1]; listed as norepinephrine) | expression of cell cycle / mitosis regulating genes [2] | expression of cell cycle / mitosis regulating genes ([2]; listed as norepinephrine) | Wee1 gene expression [2] | Wee1 gene expression ([2]; listed as norepinephrine) | cell cycle gene expression ([1]; ex vivo treatment of NMCMs with NGF 20 ng/ml (FIG. 9E))
1 | NC[C@H](O)c1ccc(O)c(O)c1 [Norepinephrine] | decreased the expression of mitosis regulating genes | suppressed mitosis genes | induced Wee1 gene expression | induces Wee1 expression | induces the expression of circadian genes | induced Per1 and Per2 as well as Cryptochrome1 (Cry1) and Cry2 genes | failed to suppress mitosis regulating genes apart from Aurkb | no significant effect on cell cycle genes apart from Aurkb | this effect was not observed in Per1/Per2 DKO cardiomyocytes | this effect was not observed in the absence of Per1/Per2 | –
2 | NGF: Nerve Growth Factor (PeproTech), used at 20 ng/ml on neonatal mouse cardiomyocytes | – | – | – | – | – | – | – | – | – | – | did not affect cell cycle gene expression
